Laboratory results published in PubChem BioAssay AID330 (DTP/NCI, 2004).
Values joined by “and” are separate entries in the source; they are usually repeats but may differ in a detail not shown here. Identical values can stand only once. Toxic doses and inconclusive results are not listed. The calls were made as follows: active = survival T/C of 150% or more; inactive = T/C below 125% in these data.

Tested on: P388 leukemia ip, CD2F1 mice, survival T/C
Experiment: NCI In Vivo Anticancer Drug Screen. Data for tumor model P388 Leukemia (intraperitoneal) in CD2F1 (CDF1) mice
Conditions: endpoint: median survival time, higher = longer survival
Outline: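 Mice carrying the transplanted tumor received test compound or vehicle. Survival was recorded in each group, and the value is the treated-group measurement divided by that of the vehicle-treated control group.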

[1] = dose: 50.0 mg/kg/injection, schedule: Q01DX005 (ip), vehicle: Klucel (hydroxypropylcellulose) (HPC)
[2] = dose: 100.0 mg/kg/injection, schedule: Q01DX005 (ip), vehicle: Klucel (hydroxypropylcellulose) (HPC)
[3] = dose: 200.0 mg/kg/injection, schedule: Q01DX005 (ip), vehicle: Klucel (hydroxypropylcellulose) (HPC)
[4] = dose: 100.0 mg/kg/injection, schedule: Q01DX001 (ip), vehicle: Klucel (hydroxypropylcellulose) (HPC)
[5] = dose: 60.0 mg/kg/injection, schedule: Q01DX005 (ip), vehicle: saline with Tween-80
[6] = dose: 120.0 mg/kg/injection, schedule: Q01DX005 (ip), vehicle: saline with Tween-80
[7] = dose: 240.0 mg/kg/injection, schedule: Q01DX005 (ip), vehicle: saline with Tween-80
[8] = dose: 50.0 mg/kg/injection, schedule: Q01DX009 (ip), vehicle: saline with Tween-80
[9] = dose: 100.0 mg/kg/injection, schedule: Q01DX009 (ip), vehicle: saline with Tween-80
[10] = dose: 200.0 mg/kg/injection, schedule: Q01DX009 (ip), vehicle: saline with Tween-80
[11] = dose: 50.0 mg/kg/injection, schedule: Q01DX005 (ip), vehicle: saline with Tween-80
[12] = dose: 100.0 mg/kg/injection, schedule: Q01DX005 (ip), vehicle: saline with Tween-80
[13] = dose: 200.0 mg/kg/injection, schedule: Q01DX005 (ip), vehicle: saline with Tween-80
[14] = dose: 50.0 mg/kg/injection, schedule: Q01DX005 (ip), vehicle: saline
[15] = dose: 100.0 mg/kg/injection, schedule: Q01DX005 (ip), vehicle: saline
[16] = dose: 50.0 mg/kg/injection, schedule: Q01DX009 (ip), vehicle: Klucel (hydroxypropylcellulose) (HPC)
[17] = dose: 100.0 mg/kg/injection, schedule: Q01DX009 (ip), vehicle: Klucel (hydroxypropylcellulose) (HPC)
[18] = dose: 200.0 mg/kg/injection, schedule: Q01DX009 (ip), vehicle: Klucel (hydroxypropylcellulose) (HPC)

Measured: T/C

CCC1=NOC(n2c3ccccc3c3ccccc32)C1 (configuration not stated)
inactive: [1] 100 % of control | [2] 100 % of control | [3] 95 % of control

COc1ccc2c(C)cc(NN)nc2c1
inactive: dose: 6.25 mg/kg/injection, schedule: Q01DX005 (ip), vehicle: Klucel (hydroxypropylcellulose) (HPC) 104 % of control | dose: 12.5 mg/kg/injection, schedule: Q01DX005 (ip), vehicle: Klucel (hydroxypropylcellulose) (HPC) 103 % of control

Nc1c(-c2noc(=O)[nH]2)ncn1Cc1ccccc1
inactive: [4] 97 % of control | dose: 200.0 mg/kg/injection, schedule: Q01DX001 (ip), vehicle: Klucel (hydroxypropylcellulose) (HPC) 92 % of control | dose: 400.0 mg/kg/injection, schedule: Q01DX001 (ip), vehicle: Klucel (hydroxypropylcellulose) (HPC) 99 % of control

COC(=O)C1=C/CCCN/C=C\1C(=O)OC
inactive: dose: 100.0 mg/kg/injection, schedule: Q04DX003 (ip), vehicle: Klucel (hydroxypropylcellulose) (HPC) 97 % of control | dose: 200.0 mg/kg/injection, schedule: Q04DX003 (ip), vehicle: Klucel (hydroxypropylcellulose) (HPC) 97 % of control | dose: 400.0 mg/kg/injection, schedule: Q04DX003 (ip), vehicle: Klucel (hydroxypropylcellulose) (HPC) 98 % of control

O=C1CC(c2ccc(Cl)cc2)C(c2ccc(Cl)cc2)C1=O (configuration not stated)
inactive: dose: 6.25 mg/kg/injection, schedule: Q01DX001 (ip), vehicle: Klucel (hydroxypropylcellulose) (HPC) 107 % of control | dose: 12.5 mg/kg/injection, schedule: Q01DX001 (ip), vehicle: Klucel (hydroxypropylcellulose) (HPC) 112 % of control | dose: 25.0 mg/kg/injection, schedule: Q01DX001 (ip), vehicle: Klucel (hydroxypropylcellulose) (HPC) 106 % of control and 86 % of control | [4] 99 % of control

CC(C)CC(NC=O)C(=O)O (configuration not stated)
inactive: [1] 104 % of control and 109 % of control | [2] 95 % of control and 100 % of control | [3] 90 % of control

CCOC(=O)C1=C(Nc2ccc(F)cc2)C(=O)N(C(C)(C)C)C1
inactive: [5] 100 % of control | [6] 106 % of control | [7] 93 % of control

C=CCN(CC=C)C(N)=Nc1ccccc1Cl
inactive: dose: 6.25 mg/kg/injection, schedule: Q01DX005 (ip), vehicle: saline 103 % of control | dose: 12.5 mg/kg/injection, schedule: Q01DX005 (ip), vehicle: saline 103 % of control | dose: 25.0 mg/kg/injection, schedule: Q01DX005 (ip), vehicle: saline 103 % of control

CCCCN1C(=O)/C(=C/c2ccco2)SC1=S
inactive: [8] 101 % of control | [9] 104 % of control | [10] 102 % of control

Cn1c(Cl)c(C=O)c(=O)n(C)c1=O
inactive: dose: 100.0 mg/kg/injection, schedule: Q04DX003 (ip), vehicle: saline with Tween-80 104 % of control | dose: 200.0 mg/kg/injection, schedule: Q04DX003 (ip), vehicle: saline with Tween-80 96 % of control

CC(C)=CN=Cc1nc(Cc2ccccc2)oc1O
inactive: [5] 105 % of control | [6] 96 % of control | [7] 94 % of control

[N-]=[N+]=Nc1ccc(NCCCCCC(=O)ON2C(=O)CCC2=O)c([N+](=O)[O-])c1
inactive: [11] 106 % of control | [12] 106 % of control | [13] 106 % of control

COc1ccc(/C=C/c2c(C(=O)O)oc3ccccc23)cc1
inactive: [8] 103 % of control | [9] 95 % of control | [10] 112 % of control

c1ccc2c(N3CCCCC3)ncnc2c1
inactive: [14] 107 % of control | [15] 100 % of control

O=C(O)CCC(Nc1ncnc2nc[nH]c12)C(=O)O (configuration not stated)
inactive: [11] 92 % of control | [12] 97 % of control | [13] 89 % of control

O=S(=O)(O)OCNc1cc(F)cc(F)c1
inactive: dose: 50.0 mg/kg/injection, schedule: Q01DX009 (ip), vehicle: saline 96 % of control | dose: 100.0 mg/kg/injection, schedule: Q01DX009 (ip), vehicle: saline 99 % of control | dose: 200.0 mg/kg/injection, schedule: Q01DX009 (ip), vehicle: saline 101 % of control

Cc1ccc(S(=O)CC2=NC(C)(C)CO2)cc1 (configuration not stated)
inactive: [14] 104 % of control | [15] 98 % of control | dose: 200.0 mg/kg/injection, schedule: Q01DX005 (ip), vehicle: saline 103 % of control

CC1CCN(CC#CCN2C(=O)CCC2=O)CC1
inactive: dose: 25.0 mg/kg/injection, schedule: Q01DX005 (ip), vehicle: Klucel (hydroxypropylcellulose) (HPC) 104 % of control | [1] 103 % of control | [2] 107 % of control | [3] 107 % of control

COC(=O)C(=O)C(C(=O)c1ccc(F)cc1)c1nc2n(c1O)C(=N)N=N2 (configuration not stated)
inactive: [5] 102 % of control | [6] 86 % of control

O=C(NN1CCOCC1)C(F)(F)F
inactive: dose: 100.0 mg/kg/injection, schedule: Q01DX001 (ip), vehicle: saline 100 % of control | dose: 200.0 mg/kg/injection, schedule: Q01DX001 (ip), vehicle: saline 99 % of control | dose: 400.0 mg/kg/injection, schedule: Q01DX001 (ip), vehicle: saline 99 % of control

CN=C(N)N/N=C(\c1ccc(Cl)cc1)c1ccc([N+](=O)[O-])cc1Cl
inactive: dose: 25.0 mg/kg/injection, schedule: Q04DX002 (ip), vehicle: saline with Tween-80 100 % of control | dose: 50.0 mg/kg/injection, schedule: Q04DX002 (ip), vehicle: saline with Tween-80 101 % of control

C/C=C/C(C#N)O[Si](C)(C)C (configuration not stated)
inactive: dose: 3.75 mg/kg/injection, schedule: Q01DX005 (ip), vehicle: saline 97 % of control | dose: 7.5 mg/kg/injection, schedule: Q01DX005 (ip), vehicle: saline 113 % of control | dose: 15.0 mg/kg/injection, schedule: Q01DX005 (ip), vehicle: saline 99 % of control

O=C(O)/C(Cl)=C(\Cl)C(=O)Nc1c(Cl)cccc1Cl
inactive: [5] 101 % of control | [6] 100 % of control

COc1ccc2c(c1O)N(C(C)=O)C1C3C(O)OCC=C4CN5CCC21C5CC43 (configuration not stated)
inactive: dose: 4.5 mg/kg/injection, schedule: Q01DX009 (ip), vehicle: Klucel (hydroxypropylcellulose) (HPC) 100 % of control | dose: 5.0 mg/kg/injection, schedule: Q01DX009 (ip), vehicle: saline 116 % of control | dose: 9.0 mg/kg/injection, schedule: Q01DX009 (ip), vehicle: Klucel (hydroxypropylcellulose) (HPC) 103 % of control | dose: 10.0 mg/kg/injection, schedule: Q01DX009 (ip), vehicle: saline 111 % of control | dose: 18.0 mg/kg/injection, schedule: Q01DX009 (ip), vehicle: Klucel (hydroxypropylcellulose) (HPC) 101 % of control | dose: 20.0 mg/kg/injection, schedule: Q01DX009 (ip), vehicle: saline 118 % of control | dose: 36.0 mg/kg/injection, schedule: Q01DX009 (ip), vehicle: Klucel (hydroxypropylcellulose) (HPC) 110 % of control | dose: 72.0 mg/kg/injection, schedule: Q01DX009 (ip), vehicle: Klucel (hydroxypropylcellulose) (HPC) 104 % of control

NC(=O)C1=C(N)CCC1
inactive: [9] 90 % of control | [10] 90 % of control | dose: 400.0 mg/kg/injection, schedule: Q01DX009 (ip), vehicle: saline with Tween-80 100 % of control

Clc1ccc(N2C=Nc3ccc(Cl)cc3C2)cc1
inactive: [16] 100 % of control | [17] 97 % of control | [18] 98 % of control

Cc1cc(=O)n(Nc2ccccc2)c(O)c1C#N
inactive: [16] 100 % of control | [17] 94 % of control | [18] 100 % of control
